Test: xn = mol fraction of the nth substance listed

Cc1ccccc1N + CC(=O)O
viscosity [mPa·s], 100 kPa
Settings	x1 = 0.1051	x1 = 0.1945	x1 = 0.2862	x1 = 0.3854	x1 = 0.4952	x1 = 0.5994	x1 = 0.6874	x1 = 0.7658	x1 = 0.8879
303.15 K	1.3	1.51	1.73	1.96	2.2	2.43	2.62	2.79	3.04
308.15 K	1.2	1.38	1.56	1.75	1.96	2.15	2.31	2.44	2.65
313.15 K	1.11	1.27	1.42	1.59	1.76	1.93	2.06	2.17	2.34
318.15 K	1.02	1.15	1.28	1.42	1.57	1.7	1.81	1.91	2.04

Cc1ccc(O)cc1 + CC(=O)O
viscosity [mPa·s], 101 kPa
Settings	x2 = 0.1682	x2 = 0.3128	x2 = 0.4383	x2 = 0.5483	x2 = 0.6454	x2 = 0.732	x2 = 0.8094	x2 = 0.8792	x2 = 0.9425
298.15 K	9.47	6.803	5.096	3.918	3.086	2.477	2.038	1.664	1.385
308.15 K	5.756	4.488	3.585	2.902	2.385	1.99	1.674	1.4	1.18
318.15 K	4.584	3.69	3.009	2.473	2.051	1.72	1.447	1.215	1.004

Nc1ccccc1Cl + Clc1ccccc1Cl
viscosity [mPa·s], 101 kPa
Settings	x1 = 0.1063	x1 = 0.2111	x1 = 0.3145	x1 = 0.4164	x1 = 0.517	x1 = 0.6162	x1 = 0.7141	x1 = 0.8107	x1 = 0.906
303.15 K	1.4	1.584	1.786	2.008	2.251	2.516	2.805	3.119	3.458
308.15 K	1.295	1.461	1.642	1.84	2.054	2.287	2.539	2.81	3.101
313.15 K	1.192	1.342	1.506	1.683	1.875	2.081	2.303	2.54	2.792
318.15 K	1.102	1.24	1.39	1.551	1.724	1.909	2.105	2.313	2.532

O=C[C@H](O)[C@H](O)[C@H](O)CO + C[N+](C)(C)CCO.[Cl-]
100 kPa, x2 = 0.6
Settings	viscosity [mPa·s]
313.2 K	575.5
318.2 K	374.3

CCCCOCCOCCO + ClC(Cl)Cl
298.15 K, 101.33 kPa
Settings	viscosity [mPa·s]
x1 = 0.0036	0.538
x1 = 0.013	0.559
x1 = 0.0198	0.572
x1 = 0.0347	0.607
x1 = 0.0576	0.674
x1 = 0.0854	0.755
x1 = 0.1232	0.882
x1 = 0.1802	1.118
x1 = 0.2156	1.281
x1 = 0.2883	1.65
x1 = 0.3513	2.01
x1 = 0.427	2.46
x1 = 0.486	2.828
x1 = 0.539	3.148
x1 = 0.6168	3.591
x1 = 0.6945	4.021
x1 = 0.7358	4.19
x1 = 0.7844	4.415
x1 = 0.8159	4.545
x1 = 0.859	4.758
x1 = 0.9079	4.913
x1 = 0.94	5.021
x1 = 0.9514	5.04
x1 = 0.9582	5.061
x1 = 0.9656	5.083
x2 = 0.0054	5.185

CCCCn1cc[n+](C)c1.F[B-](F)(F)F + O
101 kPa
Settings	viscosity [mPa·s]
298.15 K, x2 = 0.1036	80.9
298.15 K, x2 = 0.6979	9.53
308.15 K, x2 = 0.6004	8.69
313.15 K, x2 = 0.5014	8.98
318.15 K, x2 = 0.4001	9.72
318.15 K, x2 = 0.5014	7.77
323.15 K, x2 = 0.4001	8.41

Cc1cccc(C)c1 + CCCCCCCCCC
viscosity [mPa·s], 101 kPa
Settings	x1 = 0.0494	x1 = 0.1119	x1 = 0.2059	x1 = 0.2732	x1 = 0.4032	x1 = 0.4856	x1 = 0.6058	x1 = 0.7313	x1 = 0.8131	x1 = 0.9342
308.15 K	0.7221	0.6889	0.6779	0.6545	0.6148	0.5958	0.5728	0.5498	0.5392	0.5253
313.15 K	0.6818	0.6525	0.6364	0.6134	0.5805	0.5631	0.542	0.5191	0.5122	0.4972

— the CheMixHub viscosity set
